Tested on: patients suffering from dementia disorders and depression
Assay: therapy of patients suffering from dementia disorders and depression
Assay type: in vivo, human
Conditions: compared with the other local anaesthetics of the anilide group (lidocaine, bupivacaine, butanilicaine, etidocaine, tholycaine, ropivacaine)

## Cc1cccc(C)c1NC(=O)C1CCCCN1C (stereo not shown) [Mepivacaine, mepivacaine]
  effectiveness for the therapy of patients suffering from dementia disorders and depression: most effective

Reference: patent US20040192772A1, “Agent for treating the symptoms of dementia disorders and/or depression” (priority 2001, published 2004)
